What follows are compounds tested on HCV replicon cells (replicon RNA level) (assay: Cell-Based HCV Replicon Assay). Settings: Hepatitis C virus, 72 h; replicon RNA by real time PCR (Taqman), day 3; ΔCT=3.2 over baseline.
Method: To measure cell-based anti-HCV activity of the a Compound of Formula (I), replicon cells were seeded at 5000 cells/well in 96-well collagen I-coated Nune plates in the presence of the Compound of Formula (I). Various concentrations of a Compound of Formula (I), typically in 10 serial 2-fold dilutions, were added to the assay mixture, with the starting concentration ranging from 250 μM to 1 μM. The final concentration of DMSO was 0.5%, fetal bovine serum was 5%, in the assay media. Cells were harvested on day 3 by the addition of 1× cell lysis buffer (Ambion cat #8721). The replicon RNA level was measured using real time PCR (Taqman assay). The amplicon was located in 5B. The PCR primers were: 5B.2F, ATGGACAGGCGCCCTGA (SEQ. ID. NO. 2); 5B.2R, […] (SEQ. ID. NO. 3);the probe sequence was FAM-labeled CACGCCATGCGCTGCGG (SEQ. ID. NO. 4). GAPDH RNA was used as endogenous control and was amplified in the same reaction as NS5B (multiplex PCR) using primers and VIC-labeled probe recommended by the manufacturer (PE Applied Biosystem). The real-time RT-PCR reactions were run on ABI PRISM 7900HT Sequence Detection System using the following program: 48° C. for 30 minutes, 95° C. for 10 minutes, 40 cycles of 95° C. for 15 sec, 60° C. for 1 minute. The ΔCT values (CT5B-CTGAPDH) were plotted against the concentration of test compound and fitted to the sigmoid dose-response model using XLfit4 (MDL). EC50 was defined as the concentration of inhibitor necessary to achieve ΔCT=1 over the projected baseline; EC90 the concentration necessary to achieve ΔCT=3.2 over the baseline. Alternatively, to quantitate the absolute amount of replicon RNA, a standard curve was established by including serially diluted T7 transcripts of replicon RNA in the Taqman assay. All Taqman reagents were from PE Applied Biosystems. Such an assay procedure was described in detail in e.g. Malcolm et al., Antimicrobial Agents and Chemotherapy 50: 1013-1020 (2006).
HCV replicon assay data was calculated for selected compounds of the present invention using this method.

SMILES | EC90 [nM]
CN(C)CCCOC(=O)c1c(-c2ccc[nH]c2=O)c2c3occc3c(F)cc2n1Cc1cc2c(=O)[nH]cnc2cc1F [Compound 189] | < 100
Nc1ncnc2cc(F)c(Cn3c(C(=O)O)c(-c4ccc[nH]c4=O)c4c5occc5c(F)cc43)cc12 [Compound 161] | < 100
Cc1cc2[nH]ncc2cc1Cn1c(C(=O)O)c(-c2ccc[nH]c2=O)c2c3occc3c(F)cc21 [Compound 136] | < 100
CN(C)CCOC(=O)c1c(-c2ccc[nH]c2=O)c2c3occc3c(F)cc2n1Cc1cc(N)nc2ccccc12 [Compound 177] | < 100
CN(C)CCOC(=O)c1c(-c2ccc[nH]c2=O)c2c3occc3c(F)cc2n1Cc1cc2c(N)ncnc2cc1F [Compound 185] | < 100
O=C(O)c1c(-c2ccc[nH]c2=O)c2c3occc3c(F)cc2n1Cc1cc2cc[nH]c2cc1Br [Compound 170] | < 100
Cc1cc2[nH]ncc2cc1Cn1c(C(=O)OCCN(C)C)c(-c2ccc[nH]c2=O)c2c3occc3c(F)cc21 [Compound 172] | < 100
Cn1cnc2cc(Cl)c(Cn3c(C(=O)O)c(-c4ccc[nH]c4=O)c4c5occc5c(F)cc43)cc21 [Compound 162] | < 100
O=C(O)c1c(-c2ccc[nH]c2=O)c2c3occc3c(F)cc2n1Cc1cc2cn[nH]c2cc1Cl [Compound 150] | < 100
O=C(O)c1c(-c2ccc[nH]c2=O)c2c3c(c(F)cc2n1Cc1cc2cn[nH]c2cc1Cl)CCO3 [Compound 157] | < 100
C=CCNCCOC(=O)c1c(-c2ccc[nH]c2=O)c2c3occc3c(F)cc2n1Cc1cc2cn[nH]c2cc1CC=C [Compound 188] | < 100
CN(C)CCOC(=O)c1c(-c2ccc[nH]c2=O)c2c3c(c(F)cc2n1Cc1cc2cn[nH]c2cc1F)CCO3 [Compound 174] | < 100
O=Cc1ccc(F)c(Cn2c(C(=O)O)c(-c3ccc[nH]c3=O)c3c4occc4c(F)cc32)c1 [Compound 131] | < 100
O=C(O)c1c(-c2ccc[nH]c2=O)c2c3occc3c(F)cc2n1Cc1cc2c(=O)[nH]cnc2cc1Cl [Compound 164] | < 100
O=C(O)c1c(-c2ccc[nH]c2=O)c2c3c(c(F)cc2n1Cc1cc2c(=O)[nH]c(=O)[nH]c2cc1F)CCO3 [Compound 165] | < 100
N#Cc1ccc(F)c(Cn2c(C(=O)O)c(-c3ccc[nH]c3=O)c3c4occc4c(F)cc32)c1 [Compound 129] | < 100
